Legend:
[1] = target: T1, long isoform of human D2 receptor (Homo sapiens, UniProt P14416); experiment: Arrestin Agonist Assay (DRD2L PathHunter CHO-K1 cells, β-arrestin recruitment); conditions: for Emax: CHO-K1, read-out: β-arrestin (agonist mode) Emax
Protocol: (§1) Cell Lines: Activities of the compounds were assessed using a Chinese Hamster Ovary (CHO—K1) cell line that recombinantly expressed the long isoform of human D2 receptor (DRD2L PathHunter cells). The D2 receptor DNA sequence was modified to contain a “ProLink” at its C-terminus which allowed complementation with an “enzyme acceptor” (EA)-tagged β-arrestin protein. The recruitment of the O-arrestin by the D2 receptor led to complementation of the ProLink and EA and formation of active β-galactosidase which generated a D2-specific signal that was measured.
Arrestin Agonist Assay: One day prior to testing, a vial of high density stock of DRD2L PathHunter cells was thawed, and 1×10^7 cells diluted into 40 mL of growth media (Ham's F12/10% HI FBS/1% PSG). 20 μL cells per well were seeded directly into assay plates, and the plates were allowed to rest for 1 h at RT before incubating in a plate incubator overnight.
5 μL diluted compound was added to cells in each well, and the assay plate was incubated for 90 min at 37° C. 12.5 μL PathHunter detection reagent was added to each well of the assay plate, which was then covered and incubated for 1 h at RT. The plate was read on an Envision reader using the Luminescence protocol, and the data were exported for analysis.
(§2) The agonist Emax results were expressed as a percent of the dopamine control response ((measured specific response/control specific agonist response)×100) obtained in the presence of test article. The EC50 values (concentration producing a half-maximal specific response) were determined by non-linear regression analysis of the concentration-response curves.

[2] = target: T1, long isoform of human D2 receptor; experiment: Arrestin Antagonist Assay (DRD2L PathHunter CHO-K1 cells, vs EC80 dopamine); conditions: for Emax: CHO-K1, read-out: β-arrestin (antagonist mode) Imax
Protocol: as §1
Arrestin Antagonist Assay: One day prior to testing, a vial of high density stock of DRD2L PathHunter cells was thawed, and 1×10^7 cells diluted into 40 mL of growth media (Ham's F12/10% HI FBS/1% PSG). 20 μL cells per well were seeded directly into assay plates, and the plates were allowed to rest for 1 h at RT before incubating in a plate incubator overnight.
The plate was incubated for 30 min at 37° C. 15 μL PathHunter detection reagent was added to each well of the assay plate, which was then covered and incubated for 1 h at RT. The plate was read on an Envision reader using the Luminescence protocol, and the data were exported for analysis.
The IC50 values (concentration producing a half-maximal inhibitory response) were determined by non-linear regression analysis of the concentration-response curves.

[3] = target: T1, long isoform of human D2 receptor; experiment: cAMP HTRF Agonist Assay (DRD2L PathHunter CHO-K1 cells, forskolin-stimulated); conditions: for Emax: CHO-K1, read-out: cAMP (agonist mode) Emax
Protocol: Cell Lines: Activities of the compounds were assessed using a Chinese Hamster Ovary (CHO—K1) cell line that recombinantly expressed the long isoform of human D2 receptor (DRD2L PathHunter cells). The D2 receptor DNA sequence was modified to contain a “ProLink” at its C-terminus which allowed complementation with an “enzyme acceptor” (EA)-tagged β-arrestin protein. The recruitment of the O-arrestin by the D2 receptor led to complementation of the ProLink and EA and formation of active β-galactosidase which generated a D2-specific signal that was measured. The cAMP assay was measured in the same D2-expressing cell line. The D2 receptor inhibited cAMP formation so that the basal levels of cAMP were increased by the addition of an adenylate cyclase stimulator, forskolin.
cAMP HTRF Agonist Assay: Two days prior to testing, a vial of high density stock of DRD2L PathHunter cells was thawed, and cells were diluted into 10 mL of growth media (Ham's F12/10% HI FBS/1% PSG) and used to seed a T225 flask containing 50 mL of growth media. Cells were cultured for 2 days.
On the day of the assay, cells were dissociated in 5 mL cell dissociation buffer (enzyme free—Invitrogen) for 10-15 minutes at 37° C. Dissociated cells were diluted with 10 mL of growth media and counted. Cell counts were routinely ˜2×10^7 per T225. Cells were then pelleted at 1500 rpm for 5 min. Supernatant was aspirated, and cells were re-suspended in HBSS/20 mM Hepes, pH 7.4 to a cell density of 1×10^6/mL.
cAMP levels were determined using the Cisbio HTRF method. HRTF reagents (cAMP-HTRF acceptor fluorophore (d2) conjugate and cryptate-labeled anti-cAMP antibody) were prepared according to maunfacturers instructions. 5 μL of each were added to each well of an assay plate and incubated for 1 h at RT. The plate was then read on an Envision reader using the HTRF protocol, and data were exported for analysis.
as §2

T1 sequence (P14416 whole entry, canonical isoform): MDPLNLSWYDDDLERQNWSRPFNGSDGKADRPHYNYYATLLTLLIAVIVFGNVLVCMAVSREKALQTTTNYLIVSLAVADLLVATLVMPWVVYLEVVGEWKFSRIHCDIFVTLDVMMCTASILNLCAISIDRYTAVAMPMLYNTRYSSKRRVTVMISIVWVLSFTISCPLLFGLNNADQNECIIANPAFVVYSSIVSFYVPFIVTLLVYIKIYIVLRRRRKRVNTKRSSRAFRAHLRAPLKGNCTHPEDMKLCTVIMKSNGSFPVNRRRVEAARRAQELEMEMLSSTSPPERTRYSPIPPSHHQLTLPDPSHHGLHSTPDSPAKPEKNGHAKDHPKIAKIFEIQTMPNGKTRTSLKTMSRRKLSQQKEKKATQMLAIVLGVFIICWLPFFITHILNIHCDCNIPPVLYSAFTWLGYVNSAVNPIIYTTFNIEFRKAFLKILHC

| SMILES | EC50 [1] [nM] | Emax [1] [%] | IC50 [2] [nM] | Emax [2] [%] | IC50 [3] [nM] | Emax [3] [%] |
| --- | --- | --- | --- | --- | --- | --- |
| O=C1CCc2ccc(OCCCCN3CCc4ncsc4C3)cc2N1 [Compound 26, 7-(4-(6,7-dihydrothiazolo[5,4-c]pyridin-5(4H)-yl)butoxy)-3,4-dihydroquinolin-2(1H)-one] | < 10 | 10 to 25 | 1000 to 10000 | > 75 | 10 to 100 | 25 to 50 |
| CCOc1cccnc1N1CCN(CCCCOc2ccc3cccc(O)c3n2)CC1 [Compound 10, 2-(4-(4-(3-ethoxypyridin-2-yl)piperazin-1-yl)butoxy)quinolin-8-ol] | < 10 | 10 to 25 | 10 to 100 | > 75 | < 10 | 25 to 50 |
| N#Cc1cccnc1N1CCN(CCCCOc2cccc(-c3cc[nH]n3)n2)CC1 [Compound 48, 2-(4-(4-((6-(1H-pyrazol-3-yl)pyridin-2-yl)oxy)butyl)piperazin-1-yl)nicotinonitrile] | < 10 | 25 to 50 | 10 to 100 | 25 to 50 | < 10 | > 75 |
| O=c1ccc2ccc(OCCCCN3CCc4nn(-c5ccccn5)cc4C3)nc2[nH]1 [Compound 67, 7-(4-(2-(pyridin-2-yl)-6,7-dihydro-2H-pyrazolo[4,3-c]pyridin-5(4H)-yl)butoxy)-1,8-naphthyridin-2(1H)-one] | > 10000 | < 10 | 100 to 1000 | > 75 | 10 to 100 | 10 to 25 |
| O=C1CCc2ccc(OCCCCN3CCc4sccc4C3)nc2N1 [Compound 69, 7-(4-(6,7-dihydrothieno[3,2-c]pyridin-5(4H)-yl)butoxy)-3,4-dihydro-1,8-naphthyridin-2(1H)-one] | > 10000 | < 10 | 10 to 100 | > 75 | > 10000 | < 10 |
| O=c1ccc2ccc(OCCCCN3CCc4nn(-c5ccccc5)cc4C3)nc2[nH]1 [Compound 66, 7-(4-(2-phenyl-6,7-dihydro-2H-pyrazolo[4,3-c]pyridin-5(4H)-yl)butoxy)-1,8-naphthyridin-2(1H)-one] | > 10000 | < 10 | 10 to 100 | > 75 | 10 to 100 | 10 to 25 |
| COc1cccnc1N1CCN(CCCCOc2cccc(-c3cc[nH]n3)n2)CC1 [Compound 47, 1-(4-((6-(1H-pyrazol-3-yl)pyridin-2-yl)oxy)butyl)-4-(3-methoxypyridin-2-yl)piperazine] | < 10 | 10 to 25 | < 10 | 50 to 75 | < 10 | 50 to 75 |
| Oc1cccc2ccc(OCCCCN3CCc4ccccc4C3)nc12 [Compound 12, 2-(4-(3,4-dihydroisoquinolin-2(1H)-yl)butoxy)quinolin-8-ol] | 10 to 100 | 10 to 25 | 1000 to 10000 | > 75 | > 10000 | < 10 |
| O=C1CCc2ccc(OCCCCN3CCc4nn(-c5ccccc5)cc4C3)cc2N1 [Compound 30, 7-(4-(2-phenyl-6,7-dihydro-2H-pyrazolo[4,3-c]pyridin-5(4H)-yl)butoxy)-3,4-dihydroquinolin-2(1H)-one] | < 10 | 10 to 25 | 10 to 100 | > 75 | 10 to 100 | 25 to 50 |
| Cc1ccc2c(c1)CN(CCCCOc1ccc3c(n1)NC(=O)CC3)CC2 [Compound 81, 7-(4-(7-methyl-3,4-dihydroisoquinolin-2(1H)-yl)butoxy)-3,4-dihydro-1,8-naphthyridin-2(1H)-one] | > 10000 | < 10 | 10 to 100 | > 75 | > 10000 | < 10 |
| Oc1cccc2ccc(OCCCCN3CCc4cc(F)ccc4C3)nc12 [Compound 16, 2-(4-(6-fluoro-3,4-dihydroisoquinolin-2(1H)-yl)butoxy)quinolin-8-ol] | > 10000 | < 10 | 100 to 1000 | > 75 | > 10000 | < 10 |
| Oc1cccc2ccc(OCCCCN3CCc4sccc4C3)nc12 [Compound 18, 2-(4-(6,7-dihydrothieno[3,2-c]pyridin-5(4H)-yl)butoxy)quinolin-8-ol] | > 10000 | < 10 | 1000 to 10000 | > 75 | > 10000 | < 10 |
| COc1cccnc1N1CCN(CCCCOc2ccc3cccc(O)c3n2)CC1 [Compound 9, 2-(4-(4-(3-methoxypyridin-2-yl)piperazin-1-yl)butoxy)quinolin-8-ol] | > 10000 | < 10 | 10 to 100 | > 75 | < 10 | 25 to 50 |
| O=C1NCCc2ccc(OCCCCN3CCc4nn(-c5ccccc5)cc4C3)nc2N1 [Compound 89, 8-(4-(2-phenyl-6,7-dihydro-2H-pyrazolo[4,3-c]pyridin-5(4H)-yl)butoxy)-4,5-dihydro-1H-pyrido[2,3-d][1,3]diazepin-2(3H)-one] | 10 to 100 | 25 to 50 | 10 to 100 | 50 to 75 | 10 to 100 | 25 to 50 |
| O=C1CCc2ccc(OCCCCN3CCc4cc(C(F)(F)F)ccc4C3)nc2N1 [Compound 74, 7-(4-(6-(trifluoromethyl)-3,4-dihydroisoquinolin-2(1H)-yl)butoxy)-3,4-dihydro-1,8-naphthyridin-2(1H)-one] | > 10000 | < 10 | 100 to 1000 | > 75 | 10 to 100 | 10 to 25 |
| O=c1ccc2ccc(OCCCCN3CCc4cc(F)ccc4C3)nc2[nH]1 [Compound 56, 7-(4-(6-fluoro-3,4-dihydroisoquinolin-2(1H)-yl)butoxy)-1,8-naphthyridin-2(1H)-one] | > 10000 | < 10 | < 10 | > 75 | > 10000 | < 10 |
| CCS(=O)(=O)Nc1cccc(OCCCCN2CCc3ccccc3C2)n1 [Compound 43, N-(6-(4-(3,4-dihydroisoquinolin-2(1H)-yl)butoxy)pyridin-2-yl)-ethanesulfonamide] | > 10000 | < 10 | 100 to 1000 | > 75 | > 10000 | < 10 |
| O=C1CCc2ccc(OCCCCN3CCc4nn(-c5ccccc5)cc4C3)nc2N1 [Compound 82, 7-(4-(2-phenyl-6,7-dihydro-2H-pyrazolo[4,3-c]pyridin-5(4H)-yl)butoxy)-3,4-dihydro-1,8-naphthyridin-2(1H)-one] | > 10000 | < 10 | 100 to 1000 | > 75 | > 10000 | < 10 |
| O=c1ccc2ccc(OCCCCN3CCc4cc(Cl)ccc4C3)nc2[nH]1 [Compound 59, 7-(4-(6-chloro-3,4-dihydroisoquinolin-2(1H)-yl)butoxy)-1,8-naphthyridin-2(1H)-one] | > 10000 | < 10 | < 10 | > 75 | < 10 | 10 to 25 |
| O=C1CCc2ccc(OCCCCN3CCc4cc(F)ccc4C3)nc2N1 [Compound 72, 7-(4-(6-fluoro-3,4-dihydroisoquinolin-2(1H)-yl)butoxy)-3,4-dihydro-1,8-naphthyridin-2(1H)-one] | > 10000 | < 10 | 10 to 100 | > 75 | > 10000 | < 10 |
| CCn1cc2c(n1)CCN(CCCCOc1ccc3c(c1)NC(=O)CC3)C2 [Compound 34, 7-(4-(2-ethyl-6,7-dihydro-2H-pyrazolo[4,3-c]pyridin-5(4H)-yl)butoxy)-3,4-dihydroquinolin-2(1H)-one] | 100 to 1000 | 50 to 75 | > 10000 | < 10 | 100 to 1000 | 50 to 75 |
| Clc1cccc(N2CCN(CCCCOc3ccc4cn[nH]c4n3)CC2)c1Cl [Compound 1, 6-(4-(4-(2,3-dichlorophenyl)piperazin-1-yl)butoxy)-1H-pyrazolo[3,4-b]pyridine] | > 10000 | < 10 | < 10 | > 75 | < 10 | 25 to 50 |
| CC(=O)Nc1cccc(OCCCCN2CCc3ccccc3C2)n1 [Compound 40, N-(6-(4-(3,4-dihydroisoquinolin-2(1H)-yl)butoxy)pyridin-2-yl)acetamide] | > 10000 | < 10 | 100 to 1000 | > 75 | > 10000 | < 10 |
| O=C1CCc2ccc(OCCCCN3CCc4c(Cl)cccc4C3)nc2N1 [Compound 76, 7-(4-(5-chloro-3,4-dihydroisoquinolin-2(1H)-yl)butoxy)-3,4-dihydro-1,8-naphthyridin-2(1H)-one] | < 10 | > 75 | > 10000 | < 10 | < 10 | > 75 |
| CCOc1ccccc1N1CCN(CCCCOc2cccc(-c3cc[nH]n3)n2)CC1 [Compound 49, 1-(4-((6-(1H-pyrazol-3-yl)pyridin-2-yl)oxy)butyl)-4-(2-ethoxyphenyl)piperazine] | < 10 | 10 to 25 | < 10 | 50 to 75 | < 10 | 50 to 75 |
| c1ccc2c(N3CCN(CCCCOc4ccc5cn[nH]c5c4)CC3)cccc2c1 [Compound 92, 6-(4-(4-(naphthalen-1-yl)piperazin-1-yl)butoxy)-1H-indazole] | < 10 | 25 to 50 | 10 to 100 | 50 to 75 | 10 to 100 | 25 to 50 |
| O=C1CCc2ccc(OCCCCN3CCc4ccccc4C3)cc2N1 [Compound 91, 7-(4-(3,4-dihydroisoquinolin-2(1H)-yl)butoxy)-3,4-dihydroquinolin-2(1H)-one] | < 10 | 10 to 25 | 10 to 100 | > 75 | < 10 | 25 to 50 |

Reference: US9951088B2, “D2 receptor modulators and methods of use thereof in the treatment of diseases and disorders” (SUNOVION PHARMACEUTICALS INC., priority 2012, dated 2018)
